Laboratory results published in US8969516B2, “Method of hydrolysis of peptide bond” (priority 2006, dated 2015).

Key:
[1] = Quantitative kinetic studies of Ni^2+ dependent peptide hydrolysis by HPLC; format: physicochemical; conditions: 1 mM peptide, 1 mM Ni^2+, 45° C., pH 8.2 (20 mM Tris)
Description: The title octapeptides were synthesised according to a typical Fmoc protocol (Fields, Meth. Enzymol. Vol. 289). The list of variable BXHZ sequences is given in Table 2, along with 1st order rate constants determined at 45° C., pH 8.2 (20 mM Tris buffer) for 1 mM peptide and Ni^2+ concentrations. […] The substrate and product peaks were identified by MALDI-TOF MS.

[2] = MALDI-TOF screening of Ni^2+ dependent hydrolysis in a combinatorial peptide library; format: physicochemical; conditions: Ni^2+ 2 mM, pH 8.2, 10 mM Tris, score=24/tm
Method in brief: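 MALDI-TOF read-out: appearance of Ser/Thr-X-His-Z-Lys-Phe-Leu-NH2 product signals, plus loss of substrate signals, checked by eye at 2, 4, 6, 8 h. Conditions: 1 mM peptide mixture, 2 mM Ni2+, 10 mM Tris pH 8.2, 37 or 45 °C.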

[3] = Dependence of rate of hydrolysis of the Ala-Ser bond on buffer and Ni^2+ excess (HPLC); format: physicochemical; conditions: pH 8.2, 1 mM peptide; for κ ± S.D., 1st order rate constant for the hydrolysis: 25° C., 1.2 mM Ni^2+
Description: The title peptide was synthesised according to a standard Fmoc protocol (Fields, Meth. Enzymol. Vol. 289). The pH dependence of the formation of the active complex of the title peptide, represented by the structure (III) in Scheme 2, was determined by potentiometry at 25° C., as described in Krezel et al., Chem. Res. Toxicol. 2003, 16, 855-864. The rate of peptide hydrolysis was studied by HPLC (as in Example 2) in a series of mixed phosphate/Tris/Borax buffers (40/20/20 mM) at 25° C. and pH between 6 and 12.5, with peptide and Ni^2+ concentrations equal to 1 mM. As presented in FIG. 1, the rate of hydrolysis matched the formation of the active complex quantitatively.
The dependence of the rate of hydrolysis on the buffer used was studied at 25° C. separately in 20 mM Tris, Hepes and sodium phosphate buffers, all at pH 8.2, for 1 mM peptide and 1.2 mM Ni^2+.
The dependence of the rate of hydrolysis of the title peptide on the molar ratio of Ni^2+ to peptide was studied at 25° C. and pH 8.2, for 1 mM peptide. The reaction rate constant k was 4.3±0.2 s^−1×10^−5 for the Ni^2+ to peptide molar ratio of 1.2 and 4.72±0.01 s^−1×10^−5 for the Ni^2+ to peptide molar ratio of 5.

proteinase = assay: Activity of SPI2 released from the recombinant polypeptide (Chavira et al.); format: biochemical; conditions: after Ni^2+ cleavage on Ni-NTA-agarose, 100 mM Hepes pH 8.2, 50° C., 19 hours
Description: The recombinant polypeptide from Example 4 (100 μl of a 140 μM solution) was loaded on 200 μl of Ni-NTA-agarose (Invitrogen), according to the manufacturer's instruction, and incubated in 100 mM Hepes buffer, pH 8.2 with 5 mM Ni^2+ at 50° C. without shaking. The incubation buffer (500 μl) was removed after 19 hours. Then the unreacted polypeptide and the cleaved off SRHW-AP-HHHHHH domain were washed from the column with two 400 μl portions of 200 mM imidazole, pH 7.4. The samples were analyzed by HPLC under conditions given in Example 4. FIG. 4 presented chromatograms of the control recombinant polypeptide, incubation buffer and both wash fractions. Masses of polypeptides were measured by ESI-MS. The yield of purified SPI2 was 88%. SPI2 obtained from this procedure was fully active, as determined according to […] et al., Anal. Biochem. 1984, 136, 446-450.

[4] = CH3CO-Gly-Ala-Thr-X-His-Z-Lys-Phe-Leu-NH2 library, 37° C.
[5] = CH3CO-Gly-Ala-Thr-X-His-Z-Lys-Phe-Leu-NH2 library, 45° C.

Substance | hydrolysis score from MALDI-TOF screening [2, 4] | hydrolysis score from MALDI-TOF screening [2, 5] | also measured
Ac-GASRHWKFL-NH2 [-SRHW-] | – | – | k ± S.D., 1st order rate constant for the hydrolysis [1]: 28.8 ± 0.8 s^−1 · 10^−5
Ac-GASRHWKFL-NH2 [SRHW, CH3CO-Gly-Ala-Ser-Arg-His-Trp-Lys-Phe-Leu-NH2] | – | – | hydrolysis score from MALDI-TOF screening ([2]; CH3CO-Gly-Ala-Ser-X-His-Z-Lys-Phe-Leu-NH2 library, 37° C.): 12 (a score of 12, if it was seen to be partially hydrolysed at 2 hours); hydrolysis score from MALDI-TOF screening ([2]; CH3CO-Gly-Ala-Ser-X-His-Z-Lys-Phe-Leu-NH2 library, 45° C.): 12 (a score of 12, if it was seen to be partially hydrolysed at 2 hours); κ ± S.D., 1st order rate constant for the hydrolysis ([3]; 20 mM Hepes): 5.9 ± 0.8 s^−1 × 10^−5; κ ± S.D., 1st order rate constant for the hydrolysis ([3]; 20 mM Tris): 4.8 ± 0.5 s^−1 × 10^−5; κ ± S.D., 1st order rate constant for the hydrolysis ([3]; 20 mM phosphate): 0.74 ± 0.09 s^−1 × 10^−5; reaction rate constant k ([3]; Ni^2+ to peptide molar ratio of 1.2, 25° C.): 4.3±0.2 s^−1×10^−5; reaction rate constant k ([3]; Ni^2+ to peptide molar ratio of 5, 25° C.): 4.72±0.01 s^−1×10^−5
Ac-GASWHIKFL-NH2 [-SWHI-] | – | – | k ± S.D., 1st order rate constant for the hydrolysis [1]: 3 ± 1 s^−1 · 10^−5
Ac-GATHHKKFL-NH2 [-THHK-] | – | – | k ± S.D., 1st order rate constant for the hydrolysis [1]: 1.01 ± 0.09 s^−1 · 10^−5
Ac-GATYHDKFL-NH2 [TYHD] | 0 (a score of 0 if no trace of the product of hydrolysis was seen after 8 hours of incubation) | 0 (a score of 0 if no trace of the product of hydrolysis was seen after 8 hours of incubation) | –
Ac-GATYHEKFL-NH2 [TYHE] | 0 (a score of 0 if no trace of the product of hydrolysis was seen after 8 hours of incubation) | 0 (a score of 0 if no trace of the product of hydrolysis was seen after 8 hours of incubation) | –
Ac-GATYHGKFL-NH2 [TYHG] | 0 (a score of 0 if no trace of the product of hydrolysis was seen after 8 hours of incubation) | 0 (a score of 0 if no trace of the product of hydrolysis was seen after 8 hours of incubation) | –
Ac-GATYHHKFL-NH2 [TYHH] | 0 (a score of 0 if no trace of the product of hydrolysis was seen after 8 hours of incubation) | 0 (a score of 0 if no trace of the product of hydrolysis was seen after 8 hours of incubation) | –
Ac-GATYHIKFL-NH2 [TYHI] | 0 (a score of 0 if no trace of the product of hydrolysis was seen after 8 hours of incubation) | 0 (a score of 0 if no trace of the product of hydrolysis was seen after 8 hours of incubation) | –
Ac-GATYHKKFL-NH2 [TYHK] | 3 (a score of 3 for detection at 8 hours) | 4 (a score of 4 for detection at 6 hours) | –
Ac-GATYHLKFL-NH2 [TYHL] | 0 (a score of 0 if no trace of the product of hydrolysis was seen after 8 hours of incubation) | 0 (a score of 0 if no trace of the product of hydrolysis was seen after 8 hours of incubation) | –
Ac-GATYHMKFL-NH2 [TYHM] | 0 (a score of 0 if no trace of the product of hydrolysis was seen after 8 hours of incubation) | 0 (a score of 0 if no trace of the product of hydrolysis was seen after 8 hours of incubation) | –
Ac-GATYHNKFL-NH2 [TYHN] | 0 (a score of 0 if no trace of the product of hydrolysis was seen after 8 hours of incubation) | 0 (a score of 0 if no trace of the product of hydrolysis was seen after 8 hours of incubation) | –
Ac-GATYHPKFL-NH2 [TYHP] | 0 (a score of 0 if no trace of the product of hydrolysis was seen after 8 hours of incubation) | 0 (a score of 0 if no trace of the product of hydrolysis was seen after 8 hours of incubation) | –
Ac-GATYHQKFL-NH2 [TYHQ] | 0 (a score of 0 if no trace of the product of hydrolysis was seen after 8 hours of incubation) | 0 (a score of 0 if no trace of the product of hydrolysis was seen after 8 hours of incubation) | –
Ac-GATYHRKFL-NH2 [TYHR] | 4 (a score of 4 for detection at 6 hours) | 4 (a score of 4 for detection at 6 hours) | –
Ac-GATYHSKFL-NH2 [TYHS] | 0 (a score of 0 if no trace of the product of hydrolysis was seen after 8 hours of incubation) | 0 (a score of 0 if no trace of the product of hydrolysis was seen after 8 hours of incubation) | –
Ac-GATYHTKFL-NH2 [TYHT] | 0 (a score of 0 if no trace of the product of hydrolysis was seen after 8 hours of incubation) | 0 (a score of 0 if no trace of the product of hydrolysis was seen after 8 hours of incubation) | –
Ac-GATYHVKFL-NH2 [TYHV] | 0 (a score of 0 if no trace of the product of hydrolysis was seen after 8 hours of incubation) | 0 (a score of 0 if no trace of the product of hydrolysis was seen after 8 hours of incubation) | –
Ac-GATYHYKFL-NH2 [TYHY] | 0 (a score of 0 if no trace of the product of hydrolysis was seen after 8 hours of incubation) | 0 (a score of 0 if no trace of the product of hydrolysis was seen after 8 hours of incubation) | –
SPI2: single domain Kazal type proteinase inhibitor, released from (SPI2)-SRHW-AP-HHHHHH recombinant polypeptide | – | – | activity of SPI2 obtained from cleavage on solid support (proteinase): fully active
